The results in this text go back to patent US4690926A, “Boxazomycin A and B, new antibiotics containing benzoxazole nucleus” (Bristol-Myers Company, priority 1986, dated 1987).

One may read the MIC as the lowest concentration that inhibits growth of the organism. Read a high MIC as weaker potency.

Converted amounts (≈) assume the structure as drawn.

The subject of this test is S. epidermidis A22547. Format: cell-based. The settings on record: Staphylococcus epidermidis, Nutrient agar (Eiken), kanamycin-resistant.
In turn, `Cc1cc(O)c(C(N)=O)c2nc(-c3nc(CO)ncc3O)oc12` [Boxazomycin A] yielded an MIC of 0.4 µg/mL (≈ 1.26 µM).
Compound `NC[C@H]1O[C@H](O[C@H]2[C@H](O)[C@@H](O[C@H]3O[C@H](CO)[C@@H](O)[C@H](N)[C@H]3O)[C@H](N)C[C@@H]2N)[C@H](O)[C@@H](O)[C@@H]1O` [Kanamycin, kanamycin, reference compound] returned an MIC of 25 µg/mL (≈ 51.6 µM).
The result for `Cc1ncc(O)c(-c2nc3c(C(N)=O)c(O)cc(C)c3o2)n1` [Boxazomycin B] reads 0.2 µg/mL (≈ 0.666 µM).
